Where two headings read alike, the source gives them in different places.
How the values were obtained:
[1] = test system: RAW 264.7 murine monocyte/macrophage line; test: Anti-inflammatory activity by inhibition of macrophage chemiluminescence (respiratory burst, PMA-stimulated, luminol); format: cell-based; settings: for minimal effective concentration: PMA-stimulated RAW 264.7, read-out: concentration at which marked inhibition of luminescence is seen
Source text: Assay for Anti-inflammatory Activity by Inhibition of Macrophage Chemiluminescence
The RAW 264.7 cell line (available from the ATCC under accession no. TIB 71) is a murine monocyte/macrophage line the cells of which show many of the differentiative functions of a macrophage. Like macrophages, the cells are capable of phagocytosis and undergo an oxidative burst (increased oxygen consumption) and production of oxygen radicals (e.g., superoxide) in response to appropriate signals. Agents that inhibit the activation of these cells in vitro, so as to inhibit the respiratory burst and corresponding production of oxygen radicals associated with the activation, are therefore inhibitors of macrophage activation and critical steps in inflammatory processes. These agents are likely, then to be anti-inflammatories.
The respiratory burst and corresponding production of oxygen radicals that accompany macrophage activation can be measured in a variety of ways, including chemiluminescence based on the reaction of the oxygen radicals with luminol added to the culture medium (see M. A. Trush et al, 1978, "The Generation of Chemiluminescence by Phagocytic Cells." Methods in Enzymology 57: 462-494). Indeed, chemiluminescence generated from luminol in the culture medium of macrophage cell lines is recognized in the art as a marker of macrophage activation.
Cell line: RAW 264.7 (ATCC TIB 71);
1. Culture medium: DMEM with 5% FBS (attachment dependent);
2. Standard protocol for culturing cell lines: in T-75 or T-150 flasks; 37° C.; 95% air, 5% CO2; 100% humidity;
3. Cell lines are passaged when approximately 80% confluent; with trypsin (1 mg/mL) and EDTA ([…] in Ca-Mg free Hank's balanced salt solution); at a 1:4 to 1:5 split;
4. Trypsinize the cells and count with a hemacytometer;
5. Adjust concentration of cells to approximately 1,000,000 cells per mL;
6. Suspend cells in DMEM lacking phenol red and without FBS;
7. Pipette 1 mL into a standard luminometer cuvet (12×75), commercially obtainable from Analytical Luminescence Laboratories, San Diego;
8. Add luminol to final concentration of 1 μM;
9. Add test compound (0, 1, 3, 10, 30 μM);
10. Add 100 nanograms of phorbol myristate acetate (PMA);
11. Wait 1 minute and read photo counts (i.e., luminescence) on a Monolight 2010 luminometer available from Analytical Luminescence Laboratories;
The results are represented in Table 2, which illustrates the marked inhibition of luminescence by the compounds tested (CPR 2003 and CPR 2004) at concentrations above 3 μM. Results are calculated as percent of control (no test compound present).

[2] = test system: PAM-212 murine keratinocyte cell line; test: Anti-psoriatic activity by inhibition of keratinocyte proliferation (PAM-212, SRB); format: cell-based, murine (BALB/c mice); settings: for minimal effective concentration: Mus musculus, PAM212, PAM-212, 72 hours, FIG. 2, read-out: concentration at which marked inhibition of cell growth is seen; for inhibition of keratinocyte proliferation (in words): in vitro
Method: Assay for Anti-psoriatic Activity by Inhibition of Keratinocyte Proliferation:
1. Cell line: PAM-212 murine keratinocyte cell line isolated and cultivated from newborn BALB/c mice (see S. H. Yuspa et al., Cancer Research, 40, 4694-4703, December, 1980) that appears to retain many characteristics of normal keratinocytes.
2. Culture medium: 1:1 DMEM and Ham's F-12 with 10% FBS.
3. Standard protocol for culturing cell lines; in T-75 or T-150 flasks; 37° C.; 95% air, 5% CO2; 100% humidity. Cell line PAM-212 is passaged when approximately 80% confluent; with trypsin (1 mg/mL) and EDTA (1 mM EDTA in Ca-Mg free Hank's balanced salt solution); at a 1:4 to 1:5 split.
a. All procedures are performed aseptically in a Class II biological safety cabinet using standard BL-2 containment procedures. At approximately monthly intervals, fresh cells are thawed from liquid nitrogen storage in order to prevent genetic drift in stock cell lines.
After cell passage, count cells with a hemacytometer;
a. Adjust concentration to approximately 1,000 cells per 100 μL;
b. Pipette 100 μL cell suspension per well of a standard 96-well microtiter plate;
c. Preincubate 24 hours to allow cells to attach;
d. Add test compound dispersed in phosphate buffered saline (PBS), or in DMSO for the comparative compound, retinoic acid, to achieve final concentration levels ranging from 0 to 100 μM;
e. Adjust volume to 200 μL/well by adding DMEM/F12; and
f. Incubate 72 hours under standard culture conditions and determine end points.
Remove media and add 100 μL/well of cold (4° C.) 10% (w/v) trichloroacetic acid (TCA) in water;
a. After 1 hour at 4° C., remove TCA and rinse cells 5 times with tap water;
c. Add 50 μL/well of 0.4% (w/v) sulforhodamine B (SRB) in 1% (v/v) acetic acid in water;
d. After 30 minutes at room temperature, rinse cells 4 times with 1% (v/v) acetic acid in water to remove residual stain;
f. Dissolve stain by adding 100 μL/well of unbuffered Tris base, pH 10.5;
g. Read absorbance at 562 nm using a standard 96-well microtiter plate reader. Absorbance readings are linear with dye concentrations below 1.8 absorbance units. To reduce absorbance, decrease wavelength at which measurements are taken.
single point reading; the higher the absorbance, the higher the cell number;
a. background-no cell and no test compound present in culture medium;
b. control-no test compound present in culture medium;
c. initial control cell number (ICCN)-no test compound present in culture medium, end point determined at the time of treatment;
d. final control cell number (FCCN)-no test compound present in culture medium, end point determined at 72 hours after treatment;
e. final cell number (FCN)-test compound present in culture medium, end point determined at 72 hours after treatment;
ICCN=A(control, zero hour)-A(background) […]

[3] = test system: human tumor cell line HL-60; test: HL-60 cell proliferation (in vitro HL-60 cell inhibition assay, SRB); format: cell-based; settings: particularly against leukemia
Method: (§1) Use of the HL-60 cell line in evaluating the anti-tumor activity of retinoids is reported in the literature, for example, see Janick-Buckner, D. et al.,FASEB J. 5:320-325; 1991
(§2) 1. Human tumor cell line HL-60 (ATCC CCL 240), obtainable from the American Type Culture Collection (ATCC), a promyelocytic leukemia cell line.
(§3) 2. Culture media: Roswell Park Memorial Institute-1640 (RPMI-1640) plus 10% Fetal Bovine Serum (FBS).
(§4) 3. Standard protocol for culturing cell lines: in T-75 or T-150 flasks; 37° C.; 95% air, 5% CO2; 100% humidity.
(§5) a. The HL 60 cell line is passaged by removing approximately 75% of the media and cell mixture and adding an equal amount of fresh media once or twice a week.
b. […]
j. Read absorbance at 562 nm using a standard 96-well microtiter plate reader. Absorbance readings are linear with dye concentrations below 1.8 absorbance units. To reduce absorbance, decrease wavelength at which measurements are taken;
single point reading; the higher the absorbance, the higher the cell number; […]
initial control cell number (ICCN)-no test compound present in culture medium, end point determined at the time of treatment;
final control cell number (FCCN)-no test compound present in culture medium, end point determined at 72 hours after treatment;
final cell number (FCN)-test compound present in culture medium, end point determined at 72 hours after treatment; […]

[4] = test system: human tumor cell line HL-60; test: HL-60 cell viability (trypan blue exclusion); format: cell-based; settings: for cell viability (in words): HL-60, compared to retinoic acid; for viability at 10 µM / viability at 30 µM / viability at 100 µM: Homo sapiens
Method: as §1, §2, §3, §4, §5
b. All procedures are performed aseptically in a Class II biological safety cabinet using standard BL-2 containment procedures. At approximately monthly intervals, fresh cells are thawed from liquid nitrogen storage in order to prevent genetic drift in stock cell lines.
a. after cell passage, count cells with a hemacytometer;
b. adjust concentration to approximately 20,000 cells per 100 μL;
C. pipette 100 μL cell suspension per well of a standard 96-well microtiter plate;
d. add test compound dissolved in phosphate buffered saline (PBS), or in DMSO for the comparative compound, retinoic acid, for final concentration levels ranging from 0 to 100 μM;
e. adjust volume to 200 μL/well by adding RPMI-1640;; and
f. incubate 72 hours under standard culture conditions and determine end points.
6. End Point 2: Cell Viability:
a. Add 100 μL/well of 0.5% (w/v) trypan blue in PBS.
b. Using a hemacytometer, determine the percent viable cells by calculating the ratio of cells that exclude trypan blue to the total number of cells.

[5] = R. Andreesen, Prog. Biochem. Pharmacol., 22, 118-131; cited from earlier work
[6] = Liposome formation in PBS; format: physicochemical; settings: sonication
Source text: Solutions of the subject compounds of Formula (I) in PBS (phisphate-buffered saline) have characteristics indicative of the presence of liposomes. These preparations require sonication in order to form uniform, cloudy suspensions. The requirement for sonication and the cloudy appearance of the suspensions are some known properties of liposomal preparations. Additionally, foam generation, which is associated with micellar suspensions, is not a property of these preparations.

[7] = RAW264.7, PMA-stimulated mouse macrophages, 1 μM, read-out: % Inhibition of respiratory burst
[8] = RAW264.7, PMA-stimulated mouse macrophages, 3 μM, read-out: % Inhibition of respiratory burst
[9] = RAW264.7, PMA-stimulated mouse macrophages, 10 μM, read-out: % Inhibition of respiratory burst
[10] = RAW264.7, PMA-stimulated mouse macrophages, 30 μM, read-out: % Inhibition of respiratory burst
[11] = Mus musculus, RAW264.7, read-out: % Inhibition of respiratory burst

Compound	reduction of macrophage activation (in words) [1]	minimal effective concentration ([1]; Mus musculus, RAW264.7) [µM]	inhibition at 1 µM [1, 7] [%]	inhibition at 3 µM [1, 8] [%]	inhibition at 10 µM [1, 9] [%]	inhibition at 30 µM [1, 10] [%]	minimal effective concentration [2] [µM]	inhibition of keratinocyte proliferation (in words) [2]	anti-tumor or anti-cancer activity (in words) [3]	cell viability (in words) [4]	viability at 10 µM ([4]; HL-60, 72 h) [%]	viability at 30 µM ([4]; HL-60, 72 h) [%]	viability at 100 µM ([4]; HL-60, 72 h) [%]	other results
CCCCCCCCCCCCCCCCCCOCC(COP(=O)([O-])OCC[N+](C)(C)C)OC(=O)/C=C(C)/C=C/C=C(C)/C=C/C1=C(C)CCCC1(C)C (stereo not drawn) [CPR 2003, 1-O-n-Octadecyl-2-(all-trans-retinoyl)-glycero-3-phosphocholine]	markedly reduce macrophage activation	> 3	19	40	81	99	> 1	markedly inhibit proliferation of these cells in vitro	marked anti-tumor or anti-cancer activity	relatively high cell viability	97	93	97	–
CCCCCCCCCCCCCCCCCCOCC(COC(=O)/C=C(C)/C=C/C=C(C)/C=C/C1=C(C)CCCC1(C)C)OP(=O)([O-])OCC[N+](C)(C)C (stereo not drawn) [CPR 2004, 1-O-n-Octadecyl-3-(all-trans-retinoyl)-glycero-2-phosphocholine]	markedly reduce macrophage activation	> 3	14	55	93	99	> 10	markedly inhibit proliferation of these cells in vitro	marked anti-tumor or anti-cancer activity	relatively high cell viability	92	94	59	–
CCCCCCCCCCCCCCCCCCOC[C@H](COP(=O)([O-])OCC[N+](C)(C)C)OC [ET 18-OCH3, 1-O-octadecyl-2-O-methyl-sn-glycero-3-phosphocholine]	–	–	–	–	–	–	–	–	–	–	–	–	–	anti-tumor activity (in words) [5]: markedly potent anti-tumor activity
CC1=C(/C=C/C(C)=C/C=C/C(C)=C/C(=O)O)C(C)(C)CCC1 [Retinoic Acid, retinoic acid, reference compound]	–	–	–	–	–	–	–	–	–	–	–	–	–	inhibition at 1 µM [1, 11]: 2%; inhibition at 3 µM [1, 11]: 6%; inhibition at 10 µM [1, 11]: 3%; inhibition at 30 µM [1, 11]: 6%; liposome formation (in words) [6]: unlike retinoic acid, the subject compounds are capable of forming liposomes; viability at 10 µM ([4]; HL-60, 10 μM, 72 hours, read-out: % Viability): 87%; viability at 30 µM ([4]; HL-60, 30 μM, 72 hours, read-out: % Viability): 70%; viability at 100 µM ([4]; HL-60, 100 μM, 72 hours, read-out: % Viability): 0%

Reference: patent US5827836A, “Retinoid glycerol phospholipid conjugates” (Clarion Pharmaceuticals Inc., priority 1996, dated 1998)
